We go through 14 compounds from patent publication US20210330611A1, “THERAPY FOR NEUROLOGICAL DISEASES/DISORDERS” (priority 2020, published 2021).

SMILES strings stand for the structures. Counter-ions that a name gives are not always drawn. Like-named read-outs stand apart in the source and are kept apart here.

In data set [1] the test system is fibrin-induced microglia activation. As to the kind of experiment: Image-based assay of fibrin-induced microglia activation (HTS and dose response). The following applies: for inhibition at 10 µM: Rattus norvegicus, Microglia, read-out: Fibrin % inhibition. The class given is cell-based, rat.
The test system of data set [2] is LPS-induced microglia activation. Kind of data set: Image-based assay of LPS-induced microglia activation (HTS and dose response). The following applies: for inhibition at 10 µM: Rattus norvegicus, Microglia, read-out: LPS % inhibition. In kind it is cell-based, rat.
In data set [3] the test system is fibrin- and LPS-induced microglia activation. As to the kind of experiment: cells. The class given is cell-based, rat.
For data set [4], the system named is primary rat microglia.
Setting [5] is: primary microglia HTS, fibrin stimulation, cell size >800 μm2 as marker of activation.
The mark [6] stands for this setting: classification by fibrin and LPS inhibition in HTS.
[7] abbreviates: primary microglia HTS, fibrin stimulation, increased cell size (>800 μm^2) as marker of activation.
Where [8] appears, read: 48 h, primary microglia HTS, LPS stimulation, increased cell size (>800 μm^2) as marker of activation.
Setting [9] is: quadrant by fibrin and LPS inhibition in HTS of 1907 compounds.
Where [10] appears, read: primary microglia HTS, fibrin stimulation, compounds at 10 μM.
The mark [11] stands for this setting: primary microglia HTS, LPS stimulation, compounds at 10 μM.
The mark [12] stands for this setting: quadrant by fibrin and LPS inhibition, HTS at 10 μM.

A word on the inhibition: it is the change of the read-out against control, counted positive when it falls. For `Cc1ccc(O)c([C@H](CCN(C(C)C)C(C)C)c2ccccc2)c1` [Tolterodine], the inhibition at 10 µM in data set [1] was -36%; in data set [2], 15%. Besides, the “Quadrant (FIG. 5b)” value in data set [3] was “Q4”. In addition, the “LPS % cell toxicity” value in data set [4] (rat) turned out to be 0%.
On to `CCC1NC(=O)c2cc(S(N)(=O)=O)c(Cl)cc2N1` (centres unmarked) [Quinethazone], for which the inhibition at 10 µM in data set [1] (setting [5]) was determined as 15%; in data set [2] (48 h) it was 17%. Also, in data set [3] (setting [6]), the “Quadrant (FIG. 5b)” value was “Q4”. Also, the “LPS % cell toxicity” value in data set [4] (rat) is 1%.
In the case of `CC(C)(CO)[C@@H](O)C(=O)NCCC(=O)O` [Pantothenic Acid], the inhibition at 10 µM in data set [1] (setting [7]) stood at 7%; in data set [2] (setting [8]), 5%. Moreover, in data set [3] (setting [9]), the “Quadrant (FIG. 5b)” value is listed as “Q4”. In addition, the “LPS % cell toxicity” value in data set [4] (rat) was found to be 1%.
Regarding `CN(C)c1nc(N(C)C)nc(N(C)C)n1` [Altretamine], the inhibition at 10 µM in data set [1] (setting [10]) was -29%; in data set [2] (setting [11]), 16%. The “Quadrant (FIG. 5b)” value in data set [3] (setting [12]) was “Q4”. Further, the “LPS % cell toxicity” value in data set [4] (rat) is 0%.
Turning to `CC(=O)O[C@H]1C[C@@H]2CC[C@@H]3[C@H](CC[C@@]4(C)[C@H]3C[C@H]([N+]3(C)CCCCC3)[C@@H]4OC(C)=O)[C@@]2(C)C[C@@H]1[N+]1(C)CCCCC1` [Pancuronium], the Fibrin % inhibition in data set [1] (setting [7]) is on record as −4%. This compound also came in with an LPS % inhibition in data set [2] (primary microglia HTS, LPS stimulation, increased cell size (>800 μm^2) as marker of activation) of 1%. Besides, the “Quadrant (FIG. 5b)” value in data set [3] (setting [9]) is “Q4”. Besides, the “LPS % cell toxicity” value in data set [4] (rat) is recorded as 0%.
For the compound `COCCOC(=O)C1=C(C)NC(C)=C(C(=O)OC(C)C)C1c1cccc([N+](=O)[O-])c1` (centres unmarked) [Nimodipine], the inhibition at 10 µM is -6% in data set [1] (setting [7]) and 2% in data set [2] (setting [8]). The “Quadrant (FIG. 5b)” value in data set [3] (setting [9]) is “Q4”. In addition, in data set [4] (rat), the “LPS % cell toxicity” value amounted to 0%.
Consider `OC(CCN1CCCCC1)(c1ccccc1)C1CC2C=CC1C2` (centres unmarked) [Biperiden], for which the inhibition at 10 µM in data set [1] (primary HTS, 10 μM, fibrin-stimulated primary microglia) was 2%; in data set [2] (primary HTS, 10 μM, LPS-stimulated primary microglia) it was 17%. In addition, the “Quadrant (FIG. 5b)” value in data set [3] (primary HTS, 10 μM) is given as “Q4”. In data set [4] (rat), the “LPS % cell toxicity” value is given as 1%.
On to `CCOC(=O)C1=C(COCCN)NC(C)=C(C(=O)OC)C1c1ccccc1Cl` (centres unmarked) [Amlodipine], for which the inhibition at 10 µM was -17% in data set [1] (setting [10]), -29% in data set [1] (setting [7]), 59% in data set [2] (setting [8]) and 36% in data set [2] (setting [11]). The “Quadrant (FIG. 5b)” value in data set [3] (setting [9]) is “Q1”; in data set [3] (setting [12]), “Q4”. Further, the “LPS % cell toxicity” value in data set [4] (rat) amounted to 2%.
As to `O=C1c2c(O)ccc(O)c2C(=O)c2c(NCCNCCO)ccc(NCCNCCO)c21` [Mitoxantrone], the inhibition at 10 µM in data set [1] (setting [10]) is 113%; in data set [2] (setting [11]), 122%. Besides, in data set [3] (setting [12]), the “Quadrant (FIG. 5b)” value is “Q2”. Also, the “LPS % cell toxicity” value in data set [4] (rat) was 40%.
Take `NC(=O)NO` [Hydroxyurea]: the inhibition at 10 µM in data set [1] (primary microglia HTS, fibrin stimulation, activation = cell size >800 μm2) was found to be 1%; in data set [2] (48 h, primary microglia HTS, LPS stimulation, activation = cell size >800 μm2) it was 25%. The “Quadrant (FIG. 5b)” value in data set [3] (setting [9]) is given as “Q4”. Also, in data set [4] (rat), the “LPS % cell toxicity” value worked out at 1%.
Regarding `CCCc1nn(C)c2c(=O)[nH]c(-c3cc(S(=O)(=O)N4CCN(C)CC4)ccc3OCC)nc12` [Sildenafil, Sildenafil Citrate], the Fibrin % inhibition in data set [1] (setting [5]) turned out to be 22%. Further, in data set [2], the LPS % inhibition is 20%. In data set [3] (setting [6]), the “Quadrant (FIG. 5b)” value is recorded as “Q4”. For the same compound, the “LPS % cell toxicity” value in data set [4] is 0%.
Turning to `COc1cc([C@@H]2c3cc4c(cc3[C@@H](O[C@@H]3O[C@@H]5CO[C@@H](C)O[C@H]5[C@H](O)[C@H]3O)[C@H]3COC(=O)[C@H]23)OCO4)cc(OC)c1O` [Etoposide], the inhibition at 10 µM in data set [1] (setting [10]) came to 30%; in data set [2] (setting [11]), 15%. Further, in data set [3] (classification by fibrin and LPS inhibition, HTS at 10 μM), the “Quadrant (FIG. 5b)” value is “Q4”. Also, the “LPS % cell toxicity” value in data set [4] (rat) is 0%.
As to `C1CCN2C[C@@H]3C[C@@H](CN4CCCC[C@@H]34)[C@H]2C1` [Sparteine Sulfate], the inhibition at 10 µM in data set [1] (setting [5]) came to 7%; in data set [2] (48 h), 20%. Moreover, the “Quadrant (FIG. 5b)” value in data set [3] (setting [6]) is recorded as “Q4”. For the same compound, the “LPS % cell toxicity” value in data set [4] (rat) is 0%.
In the case of `CNC[C@H](O)c1ccc(O)c(O)c1.O=C(O)C(O)C(O)C(=O)O`, the Fibrin % inhibition in data set [1] (10 µM) was determined as 35%. For the same compound, the LPS % inhibition in data set [2] (10 µM) is on record as 19%. The “Quadrant (FIG. 5b)” value in data set [3] was “Q4”. For the same compound, the “LPS % cell toxicity” value in data set [4] is reported as 0%.
